This test deals with SK-N-MM (SKNMM-MYCN, doxycycline-inducible MYCN). The test is described as follows: area under dose-response curve (CellTiter-Glo viability normalised to plate controls) (AUC (arbitrary units)); higher = more loss of viability; extreme values may be limits of the assay. The procedure, abridged:
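Compounds were pin-transferred as 10-point 1:3 dilution series (890-fold stock dilution) onto SK-N-MM cells with doxycycline-inducible MYCN, plated at 1250 cells/100 μL in 96-well plates and switched about 24 h after plating to medium with or without doxycycline two days before dosing. Dosing was repeated on day 4, and CellTiter-Glo luminescence was read 3 or 8 days after drugging. Area under the dose-response curve came from log2 signals normalised to the positive and negative controls on each plate.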
(ATP-based viability assays read luminescence as a measure of living cells.)

Setting [1] is: MYCN induction (doxycycline): +doxycycline (MYCN induced), time after drugging: 8 days.
Setting [2] is: MYCN induction (doxycycline): no doxycycline (MYCN not induced), time after drugging: 3 days.
Where [3] appears, read: MYCN induction (doxycycline): no doxycycline (MYCN not induced), time after drugging: 8 days.
The mark [4] stands for this setting: MYCN induction (doxycycline): +doxycycline (MYCN induced), time after drugging: 3 days.

Consider `NC1(c2ccc(-c3nc4ccn5c(=O)[nH]nc5c4cc3-c3ccccc3)cc2)CCC1` [MK-2206], for which the “area under dose-response curve” value under setting [1] is 0, the “area under dose-response curve” value under setting [2] was 81.6 and the “area under dose-response curve” value under setting [3] turned out to be 149.

For `Cc1ccc(NC(=O)c2ccc(CN3CCN(C)CC3)cc2)cc1Nc1nc(-c2cccnc2)cs1` [MASITINIB], the “area under dose-response curve” value runs as follows: under setting [4], 0; under setting [1], 0; under setting [2], 0; under setting [3], 2.84.

In the case of `O=C(/C=C\n1cnc(-c2cc(C(F)(F)F)cc(C(F)(F)F)c2)n1)NNc1cnccn1` [SELINEXOR], the “area under dose-response curve” value came out at 98.9 under setting [4], 189 under setting [1], 43.6 under setting [2] and 128 under setting [3].

For the compound `CC1(C)CNc2cc(NC(=O)c3cccnc3NCc3ccncc3)ccc21` [MOTESANIB DIPHOSPHATE], the “area under dose-response curve” value was found to be 0 under setting [4], 0 under setting [1], 5.62 under setting [2] and 0 under setting [3].

Turning to `CO[C@H]1C[C@@H]2CC[C@@H](C)[C@@](O)(O2)C(=O)C(=O)N2CCCC[C@H]2C(=O)O[C@H]([C@H](C)C[C@@H]2CC[C@@H](O)[C@H](OC)C2)CC(=O)[C@H](C)/C=C(\C)[C@@H](O)[C@@H](OC)C(=O)[C@H](C)C[C@H](C)/C=C/C=C/C=C/1C` [SIROLIMUS], the “area under dose-response curve” value under setting [4] worked out at 18.2, the “area under dose-response curve” value under setting [1] was found to be 7.23, the “area under dose-response curve” value under setting [2] is 41.5 and the “area under dose-response curve” value under setting [3] came to 24.7.

With `CO[C@H]1C[C@@H]2CC[C@@H](C)[C@@](O)(O2)C(=O)C(=O)N2CCCC[C@H]2C(=O)O[C@H]([C@H](C)C[C@@H]2CC[C@@H](OCCO)[C@H](OC)C2)CC(=O)[C@H](C)/C=C(\C)[C@@H](O)[C@@H](OC)C(=O)[C@H](C)C[C@H](C)/C=C/C=C/C=C/1C` [EVEROLIMUS], the “area under dose-response curve” value under setting [4] was found to be 19.6, the “area under dose-response curve” value under setting [1] is 0, the “area under dose-response curve” value under setting [2] stood at 37.3 and the “area under dose-response curve” value under setting [3] was determined as 21.4.

Regarding `C/C=C1\NC(=O)[C@H]2CSSCC/C=C/[C@H](CC(=O)N[C@H](C(C)C)C(=O)N2)OC(=O)[C@H](C(C)C)NC1=O` [ROMIDEPSIN], the “area under dose-response curve” value worked out at 231 under setting [4], 416 under setting [1], 165 under setting [2] and 398 under setting [3].

On to `CN(N=O)C(=O)N[C@H]1C(O)O[C@H](CO)[C@@H](O)[C@@H]1O` (mixture of isomers) [STREPTOZOSIN], for which the “area under dose-response curve” value under setting [4] amounted to 0, the “area under dose-response curve” value under setting [1] came to 0 and the “area under dose-response curve” value under setting [2] stood at 0.

As to `CN(C)c1ccc2nc3ccc(=[N+](C)C)cc-3sc2c1` [METHYLENE BLUE], the “area under dose-response curve” value reads like this: under setting [4], 48.8; under setting [1], 152; under setting [2], 45.6; under setting [3], 75.9.

Turning to `CS(=O)(=O)c1ccc(-c2cnc(N)c(C(=O)Nc3ccccc3)n2)cc1` [VE-821], the “area under dose-response curve” value under setting [4] was determined as 41.9, the “area under dose-response curve” value under setting [1] was 75.9, the “area under dose-response curve” value under setting [2] was 8.07 and the “area under dose-response curve” value under setting [3] was 32.

Turning to `Cc1nc(Nc2ncc(C(=O)Nc3c(C)cccc3Cl)s2)cc(N2CCN(CCO)CC2)n1` [DASATINIB], the “area under dose-response curve” value runs as follows: under setting [4], 39.9; under setting [1], 121; under setting [2], 40; under setting [3], 51.4.

In the case of `CC(=O)O[C@@H](C)/C=C\C(=O)N[C@@H]1C[C@H](C)[C@H](C/C=C(C)/C=C/[C@H]2O[C@](C)(O)C[C@@]3(CO3)[C@@H]2O)O[C@@H]1C`, the “area under dose-response curve” value was 13.5 under setting [4], 33.2 under setting [1] and 28.1 under setting [3].

Regarding `CNC(=O)c1cc(Oc2ccc(NC(=O)Nc3ccc(Cl)c(C(F)(F)F)c3)cc2)ccn1` [SORAFENIB], the “area under dose-response curve” value under setting [4] amounted to 0, the “area under dose-response curve” value under setting [1] worked out at 0, the “area under dose-response curve” value under setting [2] is 0 and the “area under dose-response curve” value under setting [3] amounted to 0.

As for `NC(=O)Nc1cc(-c2cccc(F)c2)sc1C(=O)N[C@H]1CCCNC1` [AZD-7762], the “area under dose-response curve” value stood at 139 under setting [4], 244 under setting [1], 75.8 under setting [2] and 141 under setting [3].

(Values after the supplement of paper PMC7021759.)
